Laboratory results taken from ChEMBL document CHEMBL5528083, “Discovery of a Novel Thienopyrimidine Compound as a Urate Transporter 1 and Glucose Transporter 9 Dual Inhibitor with Improved Efficacy and Favorable Druggability” (J Med Chem, 2024).

Columns and labels:
Mus musculus [1] = organism: Mus musculus; experiment: Reduction in serum uric acid level in acute hyperuricemia state Kunming mouse model assessed as SUA level by measuring decrease ratio relative to control; assay type: functional; set-up: concentration or dose not given beside the values
[2] = target: T1, Solute carrier family 22 member 12 (Homo sapiens, UniProt Q96S37); experiment: Inhibition of human URAT1 expressed in HEK293T cells using 14C- uric acid assessed as uric acid absorption by measuring intracellular liquid radiation value by liquid scintillation counting analysis; assay type: cell-based
T1 sequence (Q96S37 whole entry): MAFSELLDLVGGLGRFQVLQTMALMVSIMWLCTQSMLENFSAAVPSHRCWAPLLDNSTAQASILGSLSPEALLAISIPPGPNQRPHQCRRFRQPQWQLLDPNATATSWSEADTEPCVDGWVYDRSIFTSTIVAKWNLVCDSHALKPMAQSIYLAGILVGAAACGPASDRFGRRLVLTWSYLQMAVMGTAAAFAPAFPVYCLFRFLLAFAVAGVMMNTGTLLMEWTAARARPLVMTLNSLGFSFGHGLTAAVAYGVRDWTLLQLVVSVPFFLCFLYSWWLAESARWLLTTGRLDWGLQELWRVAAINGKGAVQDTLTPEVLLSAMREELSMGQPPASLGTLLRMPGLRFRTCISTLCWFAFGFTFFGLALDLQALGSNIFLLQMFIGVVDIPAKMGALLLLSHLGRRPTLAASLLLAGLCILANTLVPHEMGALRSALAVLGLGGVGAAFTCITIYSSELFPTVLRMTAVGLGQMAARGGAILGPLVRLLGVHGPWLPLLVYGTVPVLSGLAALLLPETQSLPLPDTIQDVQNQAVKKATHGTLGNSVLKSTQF

Mus musculus [3] = organism: Mus musculus; experiment: Reduction in serum uric acid level in acute hyperuricemia state Kunming mouse model assessed as SUA level; assay type: functional
[4] = target: Xanthine dehydrogenase/oxidase (Bos taurus, UniProt P80457); experiment: Inhibition of bovine XOD using xanthine as substrate assessed as inhibitory ratio at 10 uM by spectrophotometric analysis relative to control; settings: cattle
Sequence of Xanthine dehydrogenase/oxidase (P80457 whole entry): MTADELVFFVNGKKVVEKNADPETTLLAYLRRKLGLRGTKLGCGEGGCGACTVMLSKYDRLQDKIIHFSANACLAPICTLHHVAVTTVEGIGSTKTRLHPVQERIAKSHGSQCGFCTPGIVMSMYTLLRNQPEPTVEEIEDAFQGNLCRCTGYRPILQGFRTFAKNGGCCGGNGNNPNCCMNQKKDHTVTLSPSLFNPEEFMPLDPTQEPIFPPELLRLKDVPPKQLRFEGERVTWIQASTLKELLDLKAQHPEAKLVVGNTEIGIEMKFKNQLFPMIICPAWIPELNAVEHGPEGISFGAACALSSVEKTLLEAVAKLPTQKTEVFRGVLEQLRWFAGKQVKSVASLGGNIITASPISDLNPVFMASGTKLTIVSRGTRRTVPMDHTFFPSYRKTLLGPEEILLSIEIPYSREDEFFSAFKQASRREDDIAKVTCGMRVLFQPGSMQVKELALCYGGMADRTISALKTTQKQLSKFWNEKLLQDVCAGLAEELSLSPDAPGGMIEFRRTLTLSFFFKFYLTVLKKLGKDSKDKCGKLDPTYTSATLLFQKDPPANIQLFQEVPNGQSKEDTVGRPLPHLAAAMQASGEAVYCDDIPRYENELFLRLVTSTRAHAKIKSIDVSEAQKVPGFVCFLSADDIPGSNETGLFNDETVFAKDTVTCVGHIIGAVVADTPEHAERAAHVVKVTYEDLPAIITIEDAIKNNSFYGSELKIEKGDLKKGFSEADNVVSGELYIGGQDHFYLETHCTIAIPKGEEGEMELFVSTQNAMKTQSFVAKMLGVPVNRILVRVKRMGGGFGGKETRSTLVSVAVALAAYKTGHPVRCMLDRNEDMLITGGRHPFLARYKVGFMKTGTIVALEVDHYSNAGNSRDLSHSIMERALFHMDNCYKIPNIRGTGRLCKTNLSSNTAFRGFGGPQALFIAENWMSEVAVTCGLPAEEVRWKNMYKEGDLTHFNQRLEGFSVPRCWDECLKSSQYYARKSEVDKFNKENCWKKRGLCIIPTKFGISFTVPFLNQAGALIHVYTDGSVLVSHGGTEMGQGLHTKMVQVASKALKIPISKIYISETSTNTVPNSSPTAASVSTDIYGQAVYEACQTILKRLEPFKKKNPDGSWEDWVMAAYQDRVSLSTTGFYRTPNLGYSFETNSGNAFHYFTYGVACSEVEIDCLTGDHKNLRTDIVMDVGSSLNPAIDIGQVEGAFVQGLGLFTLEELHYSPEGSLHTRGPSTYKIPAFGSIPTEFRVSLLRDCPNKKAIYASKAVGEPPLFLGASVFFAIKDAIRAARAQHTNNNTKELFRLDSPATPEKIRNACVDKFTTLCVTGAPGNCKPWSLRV

SMILES	Activity (Mus musculus [1]) [%]	IC50 [2] [µM]	Activity (Mus musculus [3]) [µM]	inhibition at 10 µM [4] [%]
O=C(O)CCCSc1nccc(Nc2ccc(C3CC3)c3ccccc23)n1	92.4	4.73	198.2	
O=C(O)CSc1nc(Nc2ccc(C3CC3)c3ccccc23)c2ccsc2n1	74.5		368.2	
Cc1nc(-c2ccc(OCC(C)C)c(C#N)c2)sc1C(=O)O [FEBUXOSTAT]				102
O=C(O)CSc1nc(Nc2ccc(C3CC3)c3ccccc23)c2ccccc2n1	82.9		294.2	
CC(C)(Sc1nccc(Nc2ccc(C3CC3)c3ccccc23)n1)C(=O)O	91	2.51	212.6	
COc1cc2nc(SCCCC(=O)O)nc(Nc3ccc(C4CC4)c4ccccc34)c2cc1OC	62.3		465.4	
O=C(O)C1(Sc2nc3c(c(Nc4ccc(C5CC5)c5ccccc45)n2)SCC3)CCC1	3.42		1014.8	
CC(C)(Sc1nc2c(c(Nc3ccc(C4CC4)c4ccccc34)n1)SCC2)C(=O)O	87.5		297.2	
O=C(O)CCSc1nccc(Nc2ccc(C3CC3)c3ccccc23)n1	24.6		880.2	
COc1cc2nc(SCC(=O)O)nc(Nc3ccc(C4CC4)c4ccccc34)c2cc1OC	91.3	4.86	193.4	
CC(C)(Sc1nc(Nc2ccc(C3CC3)c3ccccc23)c2ccccc2n1)C(=O)O	92.2	4.35	200.8	
CC(Sc1nc2c(c(Nc3ccc(C4CC4)c4ccccc34)n1)COC2)C(=O)O (stereo unspecified)	4.5		994.41	
COc1cc2nc(SC3(C(=O)O)CCC3)nc(Nc3ccc(C4CC4)c4ccccc34)c2cc1OC	89.1		214.4	
O=C(O)CCSc1nc(Nc2ccc(C3CC3)c3ccccc23)c2sccc2n1	91.3	2.75	209.6	
O=C(O)CSc1nccc(Nc2ccc(C3CC3)c3ccccc23)n1	68.2		442.4	
O=C(O)CSc1nc2c(c(Nc3ccc(C4CC4)c4ccccc34)n1)CCC2	24.9		831.4	
CC(C)(Sc1nc(Nc2ccc(C3CC3)c3ccccc23)c2sccc2n1)C(=O)O	68.5		425.4	
O=C(O)CCSc1nc2c(c(Nc3ccc(C4CC4)c4ccccc34)n1)COC2	26.1		797.6	
CC(C)(Sc1nc2c(c(Nc3ccc(C4CC4)c4ccccc34)n1)CCC2)C(=O)O	92.2	3.96	256.6	
CC(C)(Sc1nc2c(c(Nc3ccc(C4CC4)c4ccccc34)n1)COC2)C(=O)O			1040	
O=C(O)CCCSc1nc(Nc2ccc(C3CC3)c3ccccc23)c2ccc(F)cc2n1	9.9		944.6	
O=C(O)CCCSc1nc(Nc2ccc(C3CC3)c3ccccc23)c2ccsc2n1	89.6		225	
O=C(O)CCSc1nc2c(c(Nc3ccc(C4CC4)c4ccccc34)n1)SCC2	3.54		1013.8	
O=C(O)CCSc1nc(Nc2ccc(C3CC3)c3ccccc23)c2ccsc2n1	92.7		196.4	
CC(Sc1nccc(Nc2ccc(C3CC3)c3ccccc23)n1)C(=O)O (stereo unspecified)	88.9		234	
O=C(O)CCSc1nc2c(c(Nc3ccc(C4CC4)c4ccccc34)n1)CCC2	95.7	3.75	226.6	
CC(Sc1nc(Nc2ccc(C3CC3)c3ccccc23)c2ccccc2n1)C(=O)O (stereo unspecified)	21.5		911.8	

SMILES	Activity (Mus musculus [1]) [%]	IC50 [2] [µM]	Activity (Mus musculus [3]) [µM]	inhibition at 10 µM [4] [%]
O=C(O)C1(Sc2nccc(Nc3ccc(C4CC4)c4ccccc34)n2)CCC1	58.7		537.8	
COc1cc2nc(SC(C)(C)C(=O)O)nc(Nc3ccc(C4CC4)c4ccccc34)c2cc1OC	7.8		976.2	
O=C(O)C1(Sc2nc(Nc3ccc(C4CC4)c4ccccc34)c3ccc(F)cc3n2)CCC1	33		734.6	
O=C(O)CCSc1nc(Nc2ccc(C3CC3)c3ccccc23)c2ccc(F)cc2n1	13.5		912.4	
O=C(O)CCCSc1nc2c(c(Nc3ccc(C4CC4)c4ccccc34)n1)SCC2	62		514.4	
COc1cc2nc(SCCC(=O)O)nc(Nc3ccc(C4CC4)c4ccccc34)c2cc1OC	23.6		828	
O=C(O)CSc1nc2c(c(Nc3ccc(C4CC4)c4ccccc34)n1)COC2	2.3		1014.4	
CC(Sc1nc(Nc2ccc(C3CC3)c3ccccc23)c2ccsc2n1)C(=O)O (stereo unspecified)	20		884	
COc1cc2nc(SC(C)C(=O)O)nc(Nc3ccc(C4CC4)c4ccccc34)c2cc1OC (stereo unspecified)	1		1039.4	
CC(Sc1nc2c(c(Nc3ccc(C4CC4)c4ccccc34)n1)CCC2)C(=O)O (stereo unspecified)	52.6		594.6	
O=C(O)CSc1nc(Nc2ccc(C3CC3)c3ccccc23)c2ccc(F)cc2n1	90.6		210.4	
O=C(O)C1(Sc2nc3c(c(Nc4ccc(C5CC5)c5ccccc45)n2)CCC3)CCC1	50.3		614.6	
O=C(O)C1(Sc2nc3c(c(Nc4ccc(C5CC5)c5ccccc45)n2)COC3)CCC1	1.5		1021.4	
CC(Sc1nc(Nc2ccc(C3CC3)c3ccccc23)c2ccc(F)cc2n1)C(=O)O (stereo unspecified)	60.7		482.4	
O=C(O)CCCSc1nc2c(c(Nc3ccc(C4CC4)c4ccccc34)n1)CCC2	22.6		851	
O=C(O)CSc1nc2c(c(Nc3ccc(C4CC4)c4ccccc34)n1)SCC2	88.8		285.8	
O=C(O)CSc1nc(Nc2ccc(C3CC3)c3ccccc23)c2sccc2n1	1.1		1062.6	
O=C(O)C1(Sc2nc(Nc3ccc(C4CC4)c4ccccc34)c3ccsc3n2)CCC1	35.8		734.6	
O=C(O)C1(Sc2nc(Nc3ccc(C4CC4)c4ccccc34)c3ccccc3n2)CCC1	51.6		608.8	
O=C(O)C1(Sc2nc(Nc3ccc(C4CC4)c4ccccc34)c3sccc3n2)CCC1	34.8		744	
O=C(O)CCCSc1nc2c(c(Nc3ccc(C4CC4)c4ccccc34)n1)COC2			1120.8	
CC(C)(Sc1nc(Nc2ccc(C3CC3)c3ccccc23)c2ccsc2n1)C(=O)O	66.2		447.2	
CC(C)(Sc1nc(Nc2ccc(C3CC3)c3ccccc23)c2ccc(F)cc2n1)C(=O)O	82.4		284.8	
O=C(O)CCSc1nc(Nc2ccc(C3CC3)c3ccccc23)c2ccccc2n1	84.7		276.2	
O=C(O)CCCSc1nc(Nc2ccc(C3CC3)c3ccccc23)c2ccccc2n1	64.6		478.2	
CC(Sc1nc(Nc2ccc(C3CC3)c3ccccc23)c2sccc2n1)C(=O)O (stereo unspecified)	69.9		412	
CC(Sc1nc2c(c(Nc3ccc(C4CC4)c4ccccc34)n1)SCC2)C(=O)O (stereo unspecified)			1114.8	
